# Laboratory results: patent publication US12622916B2, “Use of H3K9me3 modulation for enhancing cognitive function” (THE REGENTS OF THE UNIVERSITY OF CALIFORNIA, priority 2015, dated 2026)
# “Also recorded” adds a separate entry of the source.
# Assays:
# [1] = tested on: hippocampal synaptosomes; test: Flow synaptometry of hippocampal synaptosomes of aged mice; format: in vivo; conditions: 10 mg/kg i.p.
# Procedure: Spine counts: In another series of experiments 10 aged mice (20-22 months) were injected with ETP69 (10 mg/kg; i.p) or vehicle (i.p) and 24 hours later the animals were euthanized and the brains were separated into two hemispheres. Right hemisphere was used for Golgi staining and the left was processed for flow synaptometry. Staining was conducted according to manufacturer's information (Golgi-Cox, Bioenna).
# Flow Synaptometry: Fresh synaptosome P2 fractions were obtained from whole mouse hippocampus using our long-standing protocol. Briefly, the fractions were obtained from the hippocampus by homogenizing tissue (1:10 w/v) in ice-cold sucrose 320 mM. All the steps were carried out at 4° C.; sucrose buffer, grinder, pestle and microfuge tubes were all pre-cooled on ice. Hippocampi were rapidly dissected from a single mouse and homogenized in 320 mM sucrose (1.5 ml) containing HEPES [10 mM] and protease/phosphatase inhibitors cocktail, pH 7.4. Homogenization consisted of 6-8 manual strokes in a glass-Teflon grinder, clearance (between plunger and glass): 0.15-0.25 mm. Plunger was gently rotated during strokes while the grinder was kept on ice. The homogenate was centrifuged at 1200 g for 10 min. Supernatant (S1, containing mitochondria and synaptosomes) was transferred into two clean microfuge tubes and centrifuged at 12,000 g for 20 min. Supernatants (S2) were carefully removed using a plastic tip and vacuum. Pellets (P2, corresponding to the crude synaptosome fraction) were resuspended by gently pipetting up and down in 1.5 ml of PBS Protein concentration was determined using the BCA assay using bovine serum albumin (BSA) as standard. Before immunolabeling, all samples were adjusted to the same protein concentration using PBS as diluent. Immunolabeling for flow synaptometry analysis was performed according to a method for staining of extracellular/intracellular antigens using 200 ul of synaptosomal fractions (50-100 μg protein). Antibodies: GluR1 (extracellular) (Millipore, ABN241, DIL=1:400), p-Akt-ser473 (Cell Signaling, 4060, DIL=1:400), PSD-95 (Millipore, MAB1598, DIL=1:400), anti-rabbit IgG Alexa-488 ad anti-mouse IgG Alexa 647 (Life Science, DIL=1:400). […] Relative size and granularity was determined by forward (FSC) and side scatter (SSC) properties. […] Alexa 488 and Alexa 647 fluorochromes were detected by the FL1 and FL4 detectors, respectively. […] Ten thousand size-gated particles were collected and analyzed for each sample. […]
# Next, we studied the influence of ETP69 on synapses using flow synaptometry, an innovative approach to molecularly characterize isolated synaptosomes (presynaptic terminals attached to post-synaptic dendritic spines). […] After drug treatment, hippocampal synaptosome fractions were immunostained and analyzed by flow synaptometry. […]
# [2] = tested on: bdnf promoters; test: ChIP for H3K9me3 at BDNF promoter regions in hippocampus; format: in vivo; conditions: aged mice, ETP69 versus controls
# Procedure: ChIP for BDNF promoter regions: After cross-linking with 1% formaldehyde, chromatin was sheared to fragments of 200-500 bp. Immunoprecipitation was realized overnight at 4° C. with an antibody directed against histone H3K9me3 (H3K9me3; Millipore). After washes, elution from beads, and reversal of the cross-link, immunoprecipitated DNA was purified and analyzed in triplicate by qRT-PCR with an internal standard curve prepared from pooled input samples. Each sample was normalized with the respective input value. Primers for bdnf promoters for exon I, IV, and VI correspond to each unique exon sequence. RT-qPCR primer sets were designed using the Roche Universal Probe Library Assay Design Center and obtained from Integrated DNA Technologies (Coralville, IA). RT-qPCR reactions were run in a Stratagene MX3005P thermocycler at 95° C. for 3 min, followed by 45 cycles of 95° C. for 10 s, and 58° C. for 15 s. Each RT-qPCR run included all samples run in triplicate and a standard curve. Data were analyzed by the 2^−ΔΔct method and expressed as fold change over control after normalizing with input samples, as described previously.
# [3] = tested on: 14 DIV hippocampal neurons; test: Oxygen-glucose deprivation (OGD)-induced cytotoxicity, LDH assay; format: cell-based; conditions: OGD 2 hours, LDH 48 hours after OGD
# Procedure: OGD in 14 DIV hippocampal neurons was induced by an approach similar to that described by Newcomb-Fernandez et al (2001). Normal media was replaced with PBS and culture plates were placed in an airtight chamber. The chamber was flushed with N2 and CO2 for 3 minutes, sealed, and placed in a 37° C. incubator for 2 hours. PBS was replaced with DMEM (serum-free) and cultures were returned to a normoxic environment. Culture medium was collected 48 hours after the cultures had returned to a normal environment. The cytotoxicity was measured by LDH assay (Thermo-Fisher). To calculate % Cytotoxicity, subtract the LDH activity of the Spontaneous LDH, release Control (water-treated) from the chemical-treated sample LDH activity, divide by the total LDH activity [(Maximum LDH Release Control activity)—(Spontaneous LDH Release Control activity)], and multiply by 100:
# Initially we tested the effect of ETP69 on oxygen-glucose deprivation (OGD)-induced cytotoxicity. Mature hippocampal neurons (14 DIV) were treated with OGD for 2 hours in the presence or absence of ETP69. Cytotoxicity was measured by LDH assay 48 hours after OGD. […] FIG. 13 is a graphical illustration of the effect of ETP69 on neuronal survival after oxygen-glucose deprivation (OGD). 14 DIV hippocampal neurons were treated with OGD for 2 hours in the presence or absence of ETP. Cytotoxicity was measured by LDH assay 48 hours after OGD. […]
# [4] = tested on: CREB; test: CREB phosphorylation at Ser133 by Western blotting; format: cell-based
# Description: FIG. 16 is an image illustrating ETP69 increased CREB phosphorylation at Ser133 measured by Western blotting. CREB is a transcription factor whose activation is involved in synaptic plasticity and memory formation.
smiles,measurement,setting,value
"CN1C(=O)[C@@]23C[C@](C)(C#N)[C@H](c4ccc5c(c4)OCO5)N2C(=O)[C@]1(C)SS3 (racemic) [ETP69, Rac-(3S,6S,7S,8aS)-6-(benzo[d][1,3]dioxol-5-yl)-2,3,7-trimethyl-1,4-dioxohexahydro-6H-3,8a-epidithiopyrrolo[1,2-a]pyrazine-7-carbonitrile]",PSD95 levels per particle (Mean Fluorescence of intensity),[1]; 24 hours,No detectable changes
same,proportion of size-gated synaptosomes expressing PSD95,[1]; 24 hours,increases the proportion of synaptosomes expressing PSD95
same,PSD95-positive events co-expressing surface GluR1,[1]; versus vehicle-treated controls,increase
same,proportion of events expressing both p-Akt and PSD-95,[1]; versus vehicle-treated mice,increased the proportion of events expressing both p-Akt and PSD-95
same,H3K9me3 at bdnf promoter I (Exon 1),[2],significant effect of treatment; also recorded: significantly lower
same,OGD-induced cytotoxicity (LDH),[3]; 4 nM,rescued neurons from OGD-induced cytotoxicity
same,OGD-induced cytotoxicity (LDH),[3]; 100 nM,not 100 nM rescued neurons from OGD-induced cytotoxicity
same,phosphorylation of CREB at Ser133,[4],increased phosphorylation
